{"source": "patent US20200375929A1", "about": "“METHODS AND COMPOSITIONS FOR THE TREATMENT OF DISEASES ASSOCIATED WITH CANCER, INFLAMMATION, OR IMMUNE RESPONSE” (Washington University, priority 2017, published 2020)", "system": "Nfkbiz 3′UTR", "assay": "Nfkbiz 3′UTR GFP reporter in BV2 cells (flow cytometry)", "format": "cell-based, mouse", "conditions": "DI 250 μM 12 h, LPS 1 h", "procedure": "Mouse Nfkbiz 3′UTR Lenti-reporter-GFP (#MT-m64048) vector or pLenti-UTR-GFR-Blank vector (#m014) were purchased from Applied Biological Materials. For lentiviral production transfection mixture of 1.5-mL of Opti-MEM medium (Invitrogen), 18 μg of psPAX2 (gift from Didier Trono, Addgene plasmid #12260), 13 μg of pCMV-V-SVG (gift from Bob Weinberg, Addgene plasmid #8454), 20 μg of lentiviral construct, and 105 μL of polyethylenimine (1 mg/mL; 25 kDa; linear form; Polysciences). The mixture was incubated at room temperature for 20 min and added to HEK-293T cells (ATCC) cultured in DMEM supplemented with 10% FBS, 2 mM L-glutamine and 100 U/mL penicillin-streptomycin in 150-cm2 tissue culture flask. 48 h later, virus-containing medium was filtered through […] pore-size cellulose acetate filters and used directly for BV2 transduction in the presence of polybrene (8 μg/mL, Millipore). […]\nFor ROS measurements, cells were treated with DI (250 μM), loaded with 10 μM CM-H2DCFDA (Invitrogen) at RT for 30 min in Hank's balanced salt solution (HBSS). After incubation, cell were rinsed with warm HBSS, harvested and directly analyzed. […] For Nfkbiz 3′UTR reporter analysis GFP signal was determined in live cells. […] Cells were acquired on CantoII or LSRII flow cytometers (Becton Dickinson), and data were analyzed with FlowJo v.9.5.2 software (Tree Star). […]", "note": "Entries after “also recorded” stand apart in the source; their conditions may differ."}
{"smiles": "C=C(CC(=O)OC)C(=O)OC", "note": "[DI, dimethyl itaconate]", "values": [{"measurement": "Nfkbiz 3′UTR reporter GFP expression", "result": "did not affect expression of reporter gene GFP; also recorded: not due to regulation of Nfkbiz 3′UTR"}]}
